Reference: patent US10106529B2, “Compounds that modulate intracellular calcium” (CalciMedica, Inc., priority 2011, dated 2018)

Tests used:
RBL-2H3 cells = assay: Fluorescence-based assay of store-operated calcium entry in RBL-2H3 cells; assay type: cell-based, rat; details: Rattus norvegicus, thapsigargin, inhibition of Upslope of fluorescence after calcium addition, read-out: RBL-2H3 (IC50, μmol)
Method: (§1) Fluorescence-based assays are used for screening the compounds described herein, such as compounds of Formulas (I), (IA), (II), (IIA), (III), (IIIA), (IV), (IVA), (V), (VA), (VI), (VIA), (VII), (VIIA), (VIII), (VIIIA), (IX), (IXA), (X), (XI), (XIA), (XII), or (XIIA) which modulate intracellular calcium.
B. Fluorescence-Based Assay of Store-Operated Calcium Entry in RBL-2H3 Cells.
RBL-2H3 cells are obtained from ATCC and maintained in complete medium with 10% FBS at 37° C./6% CO2.
The day prior to performing the assay, RBL-2H3 cells are plated in 50 μL of complete medium in a 384 well plate. Cells are grown at 37° C./6% CO2 overnight and grow to 50-60% confluence by the next day. On the assay day, 1.5 µM Fluo-4-AM dye (Invitrogen) in complete medium is added and incubated for 1 hour at RT. Cells are washed twice in Ca^2+-free HBSS buffer and 35 μL Ca^2+-free HBSS buffer is added to each well. 10 μL of a test compound prepared in a Ca^2+-free HBSS solution at 4.5× of the desired concentration is added to a well and incubated for 5 minutes at RT. 10 μL of thapsigargin prepared in a Ca^2+-free HBSS solution at 5.5× of the desired concentration (5.5 uM) is added to each well and incubated for an additional 25 minutes. The initial baseline fluorescence signal is measured with a FLIPR^384 (Molecular Devices) plate reader. 5 μL of 12× calcium in HBSS (12 mM) is added and changes in cellular fluorescence are measured with the FLIPR^384 plate reader. In each well, the change in the fluorescent signal as a function of time due to calcium entry into the cell is determined by calculating the difference between the fluorescent signal measured 7 seconds after calcium addition and the initial baseline fluorescence signal at time zero (t=0). This parameter is designated Upslope. The IC50 value is calculated as the concentration at which 50% of the Upslope is inhibited.

Orai1/STIM1 = molecular target: T1, Orai1/STIM1 (Homo sapiens, UniProt Q96D31); assay: Fluorescence-based assay of store-operated calcium entry in Orai1/STIM1 stable cells; assay type: cell-based; details: HEK-293 cells stably expressing human STIM1 and Orai1; inhibition of Peak-Basal fluorescence signal after calcium addition; read-out: Orai1/STIM1 (IC50, μmol)
T1 construct: c-myc (C); expressed in transfected cells; host or cells: HEK-293 cells stably expressing recombinant human STIM1 and Orai1
T1 sequence (Q96D31 whole entry): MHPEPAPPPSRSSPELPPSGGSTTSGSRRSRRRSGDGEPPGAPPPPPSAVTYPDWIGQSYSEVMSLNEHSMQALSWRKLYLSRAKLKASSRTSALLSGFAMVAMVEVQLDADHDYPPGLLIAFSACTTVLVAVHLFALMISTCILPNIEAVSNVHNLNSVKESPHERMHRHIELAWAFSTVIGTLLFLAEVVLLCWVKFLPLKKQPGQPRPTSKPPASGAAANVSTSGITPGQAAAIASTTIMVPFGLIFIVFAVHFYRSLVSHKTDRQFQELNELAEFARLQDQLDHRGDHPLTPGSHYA
Text: as §1
A. Fluorescence-Based Assay of Store-Operated Calcium Entry in Orai1/STIM1 Stable Cells.
Cells stably expressing recombinant human STIM1 and Orai1 are generated by transfecting a human Orai1 expression plasmid (pcDNA3.1-Orai1-cmyc) into HEK-293 cells stably overexpressing human STIM1 (Roos et al. 2005 JCB 169(3): 435-445). Colonies of cells stably expressing both STIM1 and Orai1 proteins are selected and then subcloned by limiting dilution. Cells were cultured at 37° C./6% CO2 in complete medium with 10% FBS and appropriate selection markers.
The day prior to performing the assay Orai1/STIM1 stable cells are plated in 50 μL of complete medium at 90-95% confluence in a 384 well plate. Cells are grown at 37° C./6% CO2 overnight. On the day of the assay, 1.5 μM fluo-4-AM (Invitrogen) in complete medium is added to the cells, which are then incubated for 1 hour at RT. Cells are washed once in Ca^2+-free HBSS (Hank's buffered saline solution) and 35 μl of Ca^2+-free HBSS is added to each well. Test compounds are added to wells in a 10 μL Ca^2+-free HBSS solution, prepared at 4.5× the desired final concentration, and incubated for 30 minutes at RT. The initial baseline fluorescence signal is then measured with a FLIPR^384 (Molecular Devices) plate reader. Calcium entry is initiated by adding 5 μl of 10×CaCl2 (10 mM) in HBSS, and changes in cellular fluorescence are measured with the FLIPR^384 plate reader. In each well, the magnitude of the fluorescence signal as a result of calcium entry into the cell is determined by calculating the difference between the peak fluorescence signal measured after calcium addition and the initial baseline fluorescence signal (designated Peak-Basal). IC50 values are typically calculated as the concentration that inhibited 50% of the Peak-Basal signal.

IC50 (RBL-2H3 cells) | IC50 (Orai1/STIM1) | Structure (SMILES)
< 0.6 µM | < 0.6 µM | Fc1cc(F)c(CNc2ccc(Oc3ccccc3C(F)(F)F)cn2)c(F)c1 [Compound 134]
< 0.6 µM | < 0.6 µM | Fc1cccc(F)c1CNc1ccc(Oc2ccccc2C(F)(F)F)cn1 [Compound 135]
< 0.6 µM | < 0.6 µM | Cn1nc(C(F)(F)F)cc1-c1ccc(NCc2ccccc2F)nc1N [Compound 143, N^2-(2-fluorobenzyl)-5-(1-methyl-3-(trifluoromethyl)-1H-pyrazol-5-yl)pyridine-2,6-diamine]
